Laboratory results taken from patent EP3733658B1, “PRENYLATED BENZOPYRANES AS PPAR AGONISTS” (Universitat de València, priority 2017, dated 2019).
pEC50, pIC50: −log10 of the molar value.

Assays:
CX3CL1 = test: Flow cytometry of TNFα-induced CX3CL1 (fractalkine) expression in HUVEC; type: cell-based
Protocol: (§1) The cells were collected from the flasks using accutase (StemPro® Accutase® Cell Dissociation Reagent, ThermoFischer Scientific, Waltham, MA).
(§2) Then they were washed and incubated for 1 h with a APC-conjugated mAb antibody against human VCAM-1 (100 µg/mL; clone STA, BioLegend, San Diego, CA), a FITC- conjugated mAb against human ICAM-1 (400 µg/mL; clone HA58, BioLegend, San Diego, CA), a PE-conjugated mAb against human CX3CL1 (1.25 µg/mL; clone 51637, R&D Systems, Minneapolis, MN) or with a APC-conjugated mAb antibody against human CXCL16 (clone 256213, R&D Systems, Abingdon, UK), all at a dilution of 1:25 in 3% BSA/PBS. The samples were analyzed using a BD FACSVerse Flow Cytometer (BD Biosciences, San Jose, CA).

ICAM-1 = test: Flow cytometry of TNFα-induced ICAM-1 expression in HUVEC; type: cell-based, human; conditions: TNFα 20 ng/mL 24 h
Protocol: as §1, §2

p38 MAPK = test: Flow cytometry of TNFα-induced p38 MAPK phosphorylation in HUVEC; type: cell-based, human; conditions: TNFα 20 ng/mL 1 h
Protocol: (§3) HUVEC were previously incubated for 24 h with compound 1 (10 µM), for use according to the present invention, or with compound 9 (3 µM), of the invention, and stimulated for 1 h with TNFα (20 ng/mL). The endothelial cells were fixed with BD Cytofix Fixation Buffer (BD Biosciences, San Jose, CA) and permeabilized with BD Sol Perm III solution (BD Biosciences, San Jose, CA) and sequentially stained with a 1:10 dilution of a PE-conjugated mAb antibody against human p65 (pS529, clone K10-895.12.50; BD Biosciences, San Jose, CA) and a 1:10 dilution of Alexa Fluor-conjugated mAb antibody against human p38 MAPK ([…], clone 36/p38; BD Biosciences, San Jose, CA). The cells were analyzed with a BD FACSVerse flow cytometer (BD Biosciences, San Jose, CA).

NF-κB (p65) = test: Flow cytometry of TNFα-induced p65 (NF-κB) phosphorylation in HUVEC; type: cell-based, human; conditions: TNFα 20 ng/mL 1 h
Protocol: as §3

hPPARα = target: T1, hPPARα (Homo sapiens, UniProt Q07869); test: PPAR/Gal4 chimera luciferase reporter transactivation assay in transiently transfected Cos-7 cells (hPPARα); type: cell-based
T1 sequence (Q07869 167-468): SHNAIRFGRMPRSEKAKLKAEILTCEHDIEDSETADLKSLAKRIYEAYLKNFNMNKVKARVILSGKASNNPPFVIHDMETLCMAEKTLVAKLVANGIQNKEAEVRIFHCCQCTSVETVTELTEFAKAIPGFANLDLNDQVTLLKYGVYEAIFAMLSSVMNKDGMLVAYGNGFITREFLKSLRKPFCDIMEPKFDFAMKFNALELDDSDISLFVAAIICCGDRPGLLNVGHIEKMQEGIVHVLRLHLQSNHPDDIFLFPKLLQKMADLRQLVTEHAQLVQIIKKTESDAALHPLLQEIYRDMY
Protocol: (§4) The cells were maintained under standard culture conditions (Dulbecco modified minimum essential Eagle medium, DMEM) supplemented with 10% fetal calf serum (FCS) at 37°C in 5% […] CO2 atmosphere. The medium was changed every 2 days. The Cos-7 cells were seeded in 60 mm discs at a density of 5.5 × 10^5 cells/disc in DMEM supplemented with 10% FCS and incubated at 37°C for 16 h before transfection. The cells were transfected in DMEM using jetPEI, with reporter (pG5-TK-pGL3) and expression (pGal4-h, hPPARα or hPPARγ) plasmids. The expression plasmid pCMV-β-galactosidase was cotransfected as a control for transfection efficacy. After 16 h the transfection was stopped adding DMEM supplemented with 10% FCS, and the cells were trypsinised and seeded in 96-well plates and incubated for 6 h in DMEM containing 10% FCS. Subsequently, the cells were incubated for 24 h in DMEM containing 0.2% FCS and increasing concentrations of the compounds or the vehicle (DMSO, maximum concentration 0.1%) were tested. Finally, the cells were washed once with PBS cooled on ice, lysed and the luciferase and β-galactosidase assays were performed.
(§5) To evaluate the compounds for PPAR transcriptional activity, the tests were conducted in a PPAR/Gal4 chimera of a human luciferase reporter gene to determine the maximum transactivation response of each compound.

VCAM-1 = test: Flow cytometry of TNFα-induced VCAM-1 expression in HUVEC; type: cell-based, human; conditions: TNFα 20 ng/mL 24 h
Protocol: as §1, §2

hPPARγ = target: T2, hPPARγ (Homo sapiens, UniProt P37231); test: PPAR/Gal4 chimera luciferase reporter transactivation assay in transiently transfected Cos-7 cells (hPPARγ); type: cell-based
T2 sequence (P37231 238-505): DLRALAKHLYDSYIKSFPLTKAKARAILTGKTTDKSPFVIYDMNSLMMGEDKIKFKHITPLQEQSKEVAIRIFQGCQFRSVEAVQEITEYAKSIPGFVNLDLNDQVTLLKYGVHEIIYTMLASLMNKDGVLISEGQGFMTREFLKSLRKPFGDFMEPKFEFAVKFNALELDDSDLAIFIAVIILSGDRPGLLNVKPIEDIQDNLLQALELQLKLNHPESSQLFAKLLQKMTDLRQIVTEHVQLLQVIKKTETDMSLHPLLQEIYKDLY
Protocol: as §4, §5

[1] = tested on: mononuclear cell adhesion to HUVEC induced by TNFα; test: Parallel flow chamber: mononuclear cell adhesion to TNFα-stimulated HUVEC; type: cell-based, human
Protocol: The parallel flow camera technique was used, which allows viewing cell adhesion under dynamic physiological flow conditions.
In the execution of this study, neutrophils and mononuclear cells were perfused through monolayers of HUVEC previously stimulated, or not, with TNFα (20 ng/mL) for 24 h. For this purpose, the neutrophils and human mononuclear cells were obtained in suspension from healthy volunteers by the Ficoll-Hypaque method, centrifuging by density gradient. Freshly isolated cells (1 × 10^6/mL) were perfused through the monolayer of endothelial cells (HUVEC) stimulated, or not, with TNFα for 24 h. In all the experiments the interactions of the leukocytes were determined after being perfused for 5 min at 0.5 dyne/cm^2. The HUVEC plates were placed in the flow chamber (GlycoTech, Gaithersburg, MD) and a camera was coupled to a phase-contrast inverted microscope (Axio Observer A1 Carl Zeiss microscope, Thornwood, NY) to view cell adhesion (20x lens and 10x eyepiece). In addition, the images were recorded on video for subsequent analysis.

[2] = ratio of IC50, mononuclear cell adhesion

| Structure (SMILES) | reduced the expression of fractalkine (CX3CL1) (CX3CL1; 10 µM, TNFα 24 h) [%] | inhibition of ICAM-1 expression induced by TNFα (ICAM-1; 10 µM, 20 h pretreatment) [%] | decrease of the activation of p38 MAPK (p38 MAPK; 10 µM) [%] | activation of NF-κB induced by TNFα (NF-κB (p65); 10 µM) | Emax (hPPARα; COS-7, read-out: hPPARα Efficacy (%)) [%] | inhibition of VCAM-1 expression induced by TNFα (VCAM-1; 10 µM, 20 h pretreatment) [%] | Emax (hPPARγ; COS-7, read-out: hPPARγ Efficacy (%)) [%] | pIC50 ([1]; Homo sapiens, HUVEC, pretreatment 20 h, TNFα 20 ng/mL 24 h, perfusion 5 min at 0.5 dyn/cm2, read-out: IC50 adhesion of HUVEC-mononuclear cells) | times less potent than rosiglitazone [1, 2] | expression of CX3CL1 induced by TNFα (CX3CL1; 3 µM, TNFα 20 ng/mL 24 h) | expression of ICAM-1 induced by TNFα (ICAM-1; 3 µM) | decrease of the activation of p38 MAPK (p38 MAPK; 3 µM) [%] | activation of NF-κB induced by TNFα (NF-κB (p65); 3 µM) | hPPARα Efficacy (%) (hPPARα; maximum activity as percentage of the maximum activity of WY-14643) | pEC50 (hPPARα; read-out: hPPARα EC50, Cos-7 cells, 24 h, tested 0.001 to 10 µM) | expression of VCAM-1 induced by TNFα (VCAM-1; 3 µM) | hPPARγ Efficacy (%) (hPPARγ; maximum activity as percentage of the maximum activity of rosiglitazone) | pEC50 (hPPARγ; read-out: hPPARγ EC50, Cos-7 cells, 24 h, tested 0.001 to 10 µM) | potency times greater than polycerasoidol [1, 2] | potency times greater than rosiglitazone [1, 2] |
| --- | --- | --- | --- | --- | --- | --- | --- | --- | --- | --- | --- | --- | --- | --- | --- | --- | --- | --- | --- | --- |
| C/C(=C\CCC1(C)CCc2cc(O)cc(C)c2O1)CC/C=C(\C)C(=O)O (centres unmarked) [Polycerasoidol, 1, polycerasoidol] | 77.6 | 23.8 | 63.4 | inhibit significantly | 107 | 87.8 | 95 | 5.31 | 5 |  |  |  |  |  |  |  |  |  |  |  |
| CCOC(=O)CCC(C)=CCCC1(C)CCc2cc(OCc3ccc(F)cc3)ccc2O1 (centres unmarked) [Compound 9] |  |  |  |  |  |  |  |  |  | significant decrease | but not ICAM-1 | 71.9 | inhibit significantly | 251 | 6.52 | significant decrease | 57 | 6.40 | ~16 | approximately 3.6 |
